Data on 14 compounds can be found in patent US12528814B2, “Bifunctional degraders of interleukin-1 receptor-associated kinases and therapeutic use thereof” (NURIX THERAPEUTICS, INC., priority 2020, dated 2026).

Test [1] deals with T1, IRAK4 (Homo sapiens (Human), UniProt Q9NWZ3). Put plainly: IRAK4 Degradation HiBiT Assay. The note with it: multiple runs, HiBiT-tagged Jurkat cells, 4 hrs; for Dmax: Jurkat, read-out: Cellular IRAK4 HiBiT: Dmax, Table 5; for DC50: read-out: Cellular IRAK4 HiBiT: DC50. A general note: The HiBiT peptide binds its large partner to form an active luciferase.
Target sequence in this assay (Q9NWZ3 whole entry): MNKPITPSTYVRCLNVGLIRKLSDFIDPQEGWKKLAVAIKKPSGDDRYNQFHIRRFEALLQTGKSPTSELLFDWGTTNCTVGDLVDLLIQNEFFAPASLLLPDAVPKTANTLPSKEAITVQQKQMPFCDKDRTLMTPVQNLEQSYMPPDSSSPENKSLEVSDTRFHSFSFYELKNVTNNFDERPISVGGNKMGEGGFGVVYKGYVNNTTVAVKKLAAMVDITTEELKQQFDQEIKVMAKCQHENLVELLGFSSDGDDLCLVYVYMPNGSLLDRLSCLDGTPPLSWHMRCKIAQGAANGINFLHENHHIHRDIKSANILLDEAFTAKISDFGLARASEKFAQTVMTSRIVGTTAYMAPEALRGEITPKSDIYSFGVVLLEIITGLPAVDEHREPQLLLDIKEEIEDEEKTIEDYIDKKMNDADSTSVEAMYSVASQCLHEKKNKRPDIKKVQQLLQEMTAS
Test [2] concerns the target T1, IRAK4. The test is described as follows: IRAK4 Biochemical HTRF Kinase Assay. The note with it: Table 5; multiple runs; read-out: IRAK4 HTRF biochemical: IC50. Summed up:
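HTRF KinEASE STK S1 format measuring IRAK4 phosphorylation of biotinylated peptide; reaction solution of 5 μM STK-S1, 10 mM ATP, 10 mM MgCl2 added (stock, to 10 μl final), 90 min at ambient temperature, detection 60 min. IC50 from sixteen-point duplicate curves by non-linear regression.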
Target sequence in this assay (Q9NWZ3 whole entry, species assumed): as the sequence (Q9NWZ3 whole entry) above

A word on the Dmax: it is the greatest extent of degradation seen. By DC50 is commonly meant the midpoint of the concentration-degradation curve. As usually defined, the IC50 is the concentration needed to halve the response being measured. With `CNc1cc(-c2ccc3cc(C#N)cnn23)ncc1-c1nnc(C2CCC(NC(=O)Cn3ccc(C(=O)N[C@H](C(=O)N4C[C@H](O)C[C@H]4C(=O)N[C@@H](C)c4ccc(-c5scnc5C)cc4)C(C)(C)C)n3)CC2)s1` (stereo partly drawn) [Example 125, 1-(2-(((1r,4S)-4-(5-(6-(3-cyanopyrrolo[1,2-b]pyridazin-7-yl)-4-(methylamino)pyridin-3-yl)-1,3,4-thiadiazol-2-yl)cyclohexyl)amino)-2-oxoethyl)-N—((S)-1-((2S,4R)-4-hydroxy-2-(((S)-1-(4-(4-methylthiazol-5-yl)phenyl)ethyl)carbamoyl)pyrrolidin-1-yl)-3,3-dimethyl-1-oxobutan-2-yl)-1H-pyrazole-3-carboxamide], the Dmax on IRAK4 [1] amounted to 116%. The DC50 at IRAK4 [1] (Table 5) stood at 166 nM. In addition, on IRAK4 [2], the 50% inhibitory concentration (IC50) is 1.7 nM.
The like results for `CNc1cc(-c2ccc3cc(C#N)cnn23)ncc1-c1nnc([C@H]2CC[C@@H](NC(=O)CN3CCN(c4ccc5c(c4)C(=O)N(C4CCC(=O)NC4=O)C5=O)CC3)CC2)s1` (some centres unmarked) [Example 126, N-((1s,4s)-4-(5-(6-(3-cyanopyrrolo[1,2-b]pyridazin-7-yl)-4-(methylamino)pyridin-3-yl)-1,3,4-thiadiazol-2-yl)cyclohexyl)-2-(4-(2-(2,6-dioxopiperidin-3-yl)-1,3-dioxoisoindolin-5-yl)piperazin-1-yl)acetamide] were, in that order, 111%, 63.1 nM and 0.9 nM.
The like results for `CNc1cc(-c2ccc3cc(C#N)cnn23)ncc1-c1nnc([C@H]2CC[C@@H](NC(=O)CN3CCC4(CC3)CN(c3ccc5c(c3)C(=O)N(C3CCC(=O)NC3=O)C5=O)C4)CC2)s1` (some centres unmarked) [Example 127, N-((1s,4s)-4-(5-(6-(3-cyanopyrrolo[1,2-b]pyridazin-7-yl)-4-(methylamino)pyridin-3-yl)-1,3,4-thiadiazol-2-yl)cyclohexyl)-2-(2-(2-(2,6-dioxopiperidin-3-yl)-1,3-dioxoisoindolin-5-yl)-2,7-diazaspiro[3.5]nonan-7-yl)acetamide] were, in that order, 58%, 187 nM and 0.8 nM.
The like results for `CNc1cc(-c2ccc3cc(C#N)cnn23)ncc1-c1nnc(C23CCC(NC(=O)CCC(=O)N[C@H](C(=O)N4C[C@H](O)C[C@H]4C(=O)N[C@@H](C)c4ccc(-c5scnc5C)cc4)C(C)(C)C)(CC2)CC3)s1` [Example 128, N1-(4-(5-(6-(3-cyanopyrrolo[1,2-b]pyridazin-7-yl)-4-(methylamino)pyridin-3-yl)-1,3,4-thiadiazol-2-yl)bicyclo[2.2.2]octan-1-yl)-N4—((S)-1-((2S,4R)-4-hydroxy-2-(((S)-1-(4-(4-methylthiazol-5-yl)phenyl)ethyl)carbamoyl)pyrrolidin-1-yl)-3,3-dimethyl-1-oxobutan-2-yl)succinamide] were, in that order, 139%, 432 nM and 1.7 nM.
On to `CNc1cc(-c2ccc3cc(C#N)cnn23)ncc1-c1nnc(C23CCC(NC(=O)CCOCCC(=O)N[C@H](C(=O)N4C[C@H](O)C[C@H]4C(=O)NCc4ccc(-c5scnc5C)cc4)C(C)(C)C)(CC2)CC3)s1` [Example 129], for which the Dmax at IRAK4 [1] worked out at 115%. Moreover, the DC50 on IRAK4 [1] (Table 5) was found to be 356 nM. Besides, the IC50 at IRAK4 [2] worked out at 1.2 nM.
Turning to `CNc1cc(-c2ccc3cc(C#N)cnn23)ncc1-c1nnc(C23CCC(NC(=O)[C@H]4CC[C@H](C(=O)N[C@H](C(=O)N5C[C@H](O)C[C@H]5C(=O)NCc5ccc(-c6scnc6C)cc5)C(C)(C)C)CC4)(CC2)CC3)s1` [Example 130, (1S,4r)-N1-(4-(5-(6-(3-cyanopyrrolo[1,2-b]pyridazin-7-yl)-4-(methylamino)pyridin-3-yl)-1,3,4-thiadiazol-2-yl)bicyclo[2.2.2]octan-1-yl)-N4—((S)-1-((2S,4R)-4-hydroxy-2-((4-(4-methylthiazol-5-yl)benzyl)carbamoyl)pyrrolidin-1-yl)-3,3-dimethyl-1-oxobutan-2-yl)cyclohexane-1,4-dicarboxamide], at IRAK4 [1] (Table 5), the “Cellular IRAK4 HiBiT: Dmax” value was determined as 110% and the DC50 worked out at 126 nM. Also, the IC50 on IRAK4 [2] turned out to be 1.8 nM.
As for `CNc1cc(-c2ccc3cc(C#N)cnn23)ncc1-c1nnc(C23CCC(NC(=O)CCCCCC(=O)N[C@H](C(=O)N4C[C@H](O)C[C@H]4C(=O)N[C@@H](C)c4ccc(-c5scnc5C)cc4)C(C)(C)C)(CC2)CC3)s1` [Example 131, N1-(4-(5-(6-(3-cyanopyrrolo[1,2-b]pyridazin-7-yl)-4-(methylamino)pyridin-3-yl)-1,3,4-thiadiazol-2-yl)bicyclo[2.2.2]octan-1-yl)-N7-((S)-1-((2S,4R)-4-hydroxy-2-(((S)-1-(4-(4-methylthiazol-5-yl)phenyl)ethyl)carbamoyl)pyrrolidin-1-yl)-3,3-dimethyl-1-oxobutan-2-yl)heptanediamide], on IRAK4 [1], the Dmax was determined as 109%. Also, the DC50 at IRAK4 [1] (Table 5) was 124 nM. Further, the concentration for half-maximal inhibition (IC50) on IRAK4 [2] is 2.1 nM.
Consider `CNc1cc(-c2ccc3cc(C#N)cnn23)ncc1-c1nnc(N2CCN(C3CCN(C(=O)c4ccc(C(=O)NC5CCC(=O)NC5=O)cc4)CC3)CC2)s1` (centres unmarked) [Example 132, 4-(4-(4-(5-(6-(3-cyanopyrrolo[1,2-b]pyridazin-7-yl)-4-(methylamino)pyridin-3-yl)-1,3,4-thiadiazol-2-yl)piperazin-1-yl)piperidine-1-carbonyl)-N-(2,6-dioxopiperidin-3-yl)benzamide], for which the DC50 at IRAK4 [1] (Table 5) was greater than 9980 nM. The IC50 at IRAK4 [2] was found to be 0.6 nM.
For the compound `CNc1cc(-c2ccc3cc(C#N)cnn23)ncc1-c1nnc([C@H]2CC[C@@H](NC(=O)C3CCN(c4ccc5c(c4)C(=O)N(C4CCC(=O)NC4=O)C5=O)CC3)CC2)s1` (some centres unmarked) [Example 133, N-((1s,4s)-4-(5-(6-(3-cyanopyrrolo[1,2-b]pyridazin-7-yl)-4-(methylamino)pyridin-3-yl)-1,3,4-thiadiazol-2-yl)cyclohexyl)-1-(2-(2,6-dioxopiperidin-3-yl)-1,3-dioxoisoindolin-5-yl)piperidine-4-carboxamide], the Dmax on IRAK4 [1] came to 111%. Also, the DC50 on IRAK4 [1] (Table 5) worked out at 51.4 nM. The half-inhibitory concentration (IC50) on IRAK4 [2] is 0.9 nM.
The like results for `CNc1cc(-c2ccc3cc(C#N)cnn23)ncc1-c1nnc(C23CCC(NC(=O)C4CCN(c5ccc6c(c5)C(=O)N(C5CCC(=O)NC5=O)C6=O)CC4)(CC2)CC3)s1` (centres unmarked) [Example 134, N-(4-(5-(6-(3-cyanopyrrolo[1,2-b]pyridazin-7-yl)-4-(methylamino)pyridin-3-yl)-1,3,4-thiadiazol-2-yl)bicyclo[2.2.2]octan-1-yl)-1-(2-(2,6-dioxopiperidin-3-yl)-1,3-dioxoisoindolin-5-yl)piperidine-4-carboxamide] were, in that order, 103%, 64.1 nM and 0.9 nM.
The matching figures for `CNc1cc(-c2ccc3cc(C#N)cnn23)ncc1-c1nnc([C@H]2CC[C@@H](NC(=O)C3CCN(c4cccc5c4C(=O)N(C4CCC(=O)NC4=O)C5=O)CC3)CC2)s1` (some centres unmarked) [Example 135, N-((1s,4s)-4-(5-(6-(3-cyanopyrrolo[1,2-b]pyridazin-7-yl)-4-(methylamino)pyridin-3-yl)-1,3,4-thiadiazol-2-yl)cyclohexyl)-1-(2-(2,6-dioxopiperidin-3-yl)-1,3-dioxoisoindolin-4-yl)piperidine-4-carboxamide]: 46%, 774 nM and 1 nM.
Consider `CNc1cc(-c2ccc3cc(C#N)cnn23)ncc1-c1nnc([C@H]2CC[C@H](N(C)C(=O)CN3CCN(c4ccc5c(c4)C(=O)N(C4CCC(=O)NC4=O)C5=O)CC3)CC2)s1` (some centres unmarked) [Example 137, N-((1r,4r)-4-(5-(6-(3-cyanopyrrolo[1,2-b]pyridazin-7-yl)-4-(methylamino)pyridin-3-yl)-1,3,4-thiadiazol-2-yl)cyclohexyl)-2-(4-(2-(2,6-dioxopiperidin-3-yl)-1,3-dioxoisoindolin-5-yl)piperazin-1-yl)-N-methylacetamide], for which the Dmax at IRAK4 [1] came to 108%. The 50% degradation concentration (DC50) at IRAK4 [1] (Table 5) is 19.1 nM. In addition, the IC50 on IRAK4 [2] amounted to 22.6 nM.
The like results for `CNc1cc(-c2ccc3cc(C#N)cnn23)ncc1-c1nnc([C@H]2CC[C@H](NC(=O)C3CN(C4CCN(c5ccc6c(c5)C(=O)N(C5CCC(=O)NC5=O)C6=O)CC4)C3)CC2)s1` (some centres unmarked) [Example 138, N-((1r,4r)-4-(5-(6-(3-cyanopyrrolo[1,2-b]pyridazin-7-yl)-4-(methylamino)pyridin-3-yl)-1,3,4-thiadiazol-2-yl)cyclohexyl)-1-(1-(2-(2,6-dioxopiperidin-3-yl)-1,3-dioxoisoindolin-5-yl)piperidin-4-yl)azetidine-3-carboxamide] were, in that order, 116%, 65.5 nM and 0.8 nM.
The like results for `CNc1cc(-c2ccc3cc(C#N)cnn23)ncc1-c1nnc([C@H]2CC[C@H](NC(=O)C3CCN(c4cccc5c4C(=O)N(C4CCC(=O)NC4=O)C5=O)CC3)CC2)s1` (some centres unmarked) [Example 139, N-((1r,4r)-4-(5-(6-(3-cyanopyrrolo[1,2-b]pyridazin-7-yl)-4-(methylamino)pyridin-3-yl)-1,3,4-thiadiazol-2-yl)cyclohexyl)-1-(2-(2,6-dioxopiperidin-3-yl)-1,3-dioxoisoindolin-4-yl)piperidine-4-carboxamide] were, in that order, 24%, 10.6 nM and 0.9 nM.
